# Data published in US7012093B2, “Multiple fluorescent natural dye compound from a marine organism and method of use thereof” (Council of Scientific & Industrial Research, priority 2001, dated 2006).
# “Also recorded” adds a separate entry of the source.
# What was measured:
# [1] = Stability of the compound cum dye at the sub zero temperatures; type: physicochemical
# From the text: In yet another embodiment stability of the compound cum Dye at the sub Zero temperatures is seen. The compound in its diluted form 5×10^−6 was taken in a microfuge tube and kept at −20 degree centigrade and seen in the frozen state under UV light.
# The compound in its diluted form 5×10^−6 was taken in a microfuge tube and kept at −20 degree centigrade and seen in the frozen state under UV light.
# [2] = Solubility of the compound; type: physicochemical; conditions: for solubility in organic solvents: ethanol, methanol, acetone
# [3] = Stability check of the dye (temperature, shelf life, light); type: physicochemical
# Experimental: (§1) The pure hydrogen form of the compound is having the pH of 2.8. The salt form of the compound is stable up to 300° C. without the change of physical and chemical characters. The compound in aqueous solution in a very diluted form (5×10^−6 concentration) is pale yellow in color with the naked eye and the concentrated solution is reddish brown in color.
# The compound retained its stability for about a year without any contamination or chemical decay.
# ticks/fleas of dogs = experiment: Veterinary remedy: killing ticks/fleas of dogs; type: in vivo, ticks and fleas
# From the text: In yet another embodiment, the utility of the dye as a Veterinary remedy for ticks and fleas of pets is seen. The extract is used as veterinary remedy for killing ticks/fleas of dogs. 5×10^−6 concentration of dye in 1:200 dilutions killed ticks and fleas in less than 20 seconds. The extract was used as veterinary remedy for killing ticks/fleas of dogs. 5×10^−8 concentration of the purified compound cum dye killed ticks and fleas in less than 20 seconds.
# ants = experiment: Pesticidal effect (filter paper soaked in the dye); type: in vivo; conditions: filter paper soaked in the dye left on the workbench; next day full of dead ants
# From the text: In yet another embodiment, the pesticidal effect of the compound cum dye is noticed. […] The filter paper soaked in the dye was left unattended on the workbench. Next day it was noticed full of dead ants. […] The filter paper soaked in the dye was left unattended on the workbench. Next day it was noticed full of dead ants.
# [4] = pH of the compound and pH sensitivity of emissions; type: physicochemical
# Experimental: as §1
# The dye has a pH of 2.8 and their spectral emissions are not affected at different pH range i.e. from pH 2.8–8.0.
# [5] = Biosurfactant nature (shaking of solutions); type: physicochemical; conditions: 0.001 mg–0.01 mg per ml solutions
# E. coli (wild type) = experiment: Anti-microbial test (zone of inhibition, filter paper disk on seeded agar); type: cell-based; conditions: 10 mg/ml of the sample soaked in filter paper disks, 37° C., 24 hours
# Experimental: In yet another embodiment, anti-microbial test of the compound cum dye is done. […] As the marine dye is, a phenolic compound and phenolic compounds are generally having Anti-microbial activity, the anti-microbial assay was performed with this compound and the zone of inhibition was observed. E. coli (wild type) culture was grown overnight in MacConkey's broth 50 ml in a conical flask (100 ml). Antibiotic assay agar medium was prepared and sterilized. It was then brought to a temperature of 50 degree centigrade and 1 ml of E. coli (wild type) culture was added to it. The culture was mixed with antibiotic assay agar medium and was allowed to solidify. 10 mg/ml of the sample was prepared and soaked in filter paper disks. It was then placed upon the said antibiotic assay agar medium seeded with E. coli. It was then incubated at 37° C. in an incubator for 24 hours.
substance,measurement,setting,value
Phenolic sulphated silicated polysaccharide [PSSP-1],fluorescence in the frozen state,"[1]; diluted form 5×10^−6, −20 degree centigrade, under UV light",persisted without any deterioration
same,fluorescence after freezing in liquid nitrogen,[1]; frozen in the liquid nitrogen,remained unaffected
same,solubility in organic solvents,[2],"insoluble in the organic solvents including ethanol, methanol and acetone"
same,solubility in organic solvents,[2]; listed as dye,"insoluble in the organic solvents like ethanol, methanol and acetone"
same,solubility in water,[2],soluble in water
same,solubility in water,[2]; listed as dye,more than the solubility characters of Fluorescein; also recorded: highly water-soluble
same,photolysis after light treatment,"[3]; exposure to light, listed as dye",does not undergo photolysis after exposure to light; also recorded: did not undergo photolysis after light treatment
same,temperature up to which the dye is stable (no alteration of the spectral property),"[3]; heating, fluorescent spectral properties unchanged",up to 300 degree Centigrade
same,duration of retained stability without contamination or chemical decay,[3]; room temperature,about a year
same,persistence of fluorescence at the room temperature,[3]; room temperature,at least 1 year
same,duration of retained stability without contamination or chemical decay,"[3]; room temperature, listed as dye",above a year
same,time to kill ticks and fleas,ticks/fleas of dogs; 5×10^−6 concentration of dye in 1:200 dilutions,less than 20 seconds
same,time to kill ticks and fleas,ticks/fleas of dogs; 5×10^−8 concentration of the purified compound cum dye,less than 20 seconds
same,toxicity to insects,ants,toxic to insects
same,pH,[4],2.8
same,effect of pH on spectral emissions,[4]; pH 2.8–8.0,not affected
same,frothing on shaking,[5],frothing was seen
same,frothing on shaking,[5]; listed as dye,frothing is seen
same,zone of inhibition,E. coli (wild type); listed as compound cum dye,zone of inhibition is observed
same,zone of inhibition,E. coli (wild type); listed as dye,Zone of inhibition surrounding the filter disk was observed
